From patent EP4733299A1, “SULFUR-CONTAINING FUSED RING COMPOUND, PHARMACEUTICAL COMPOSITION CONTAINING SAME, AND PREPARATION METHOD THEREFOR AND USE THEREOF” (Shenzhen Braegen Pharmaceutical Co., Ltd., priority 2023, dated 2024)

Experiments:
[1] = molecular target: T1, a-Syn aggregates (Homo sapiens, UniProt P37840, A53T); experiment: Binding specificity on brain slices of rotenone-treated SNCA transgenic mice; conditions: brain slices, rotenone-treated SNCA Tg mice; Fig. 2
T1 construct: tissue The Jackson Laboratory 017682; host or cells: brain sections of rotenone-treated transgenic mice
Description: To further explore whether the positive compounds selectively bind to Lewy bodies, brain slices from mice were used to test the binding specificity assays.
Staining with a-Synuclein protein coding gene (SNCA) transgenic mice (the Jackson Laboratory; stock numbers: 017682) were treated with rotenone (Oral gavage of rotenone under the following protocol: Mice were treated with 0.1 mL/25 g of vehicle containing 1% methylcellulose (Sigma, Catalog No.: M0512) and 1.25% chloroform (Sigma, Catalog No.: 2432) or a solution containing 0.625 mg/mL of rotenone (ULTRA Scientific, Catalog No.: PST-890) with 1% methylcellulose and 1.25% chloroform. We prepared rotenone solution by dissolving rotenone in chloroform and then diluting into 1% methylcellulose solution while mixing vigorously. Rotenone or vehicle control was orally administered with a 1.2 x 60 mm gavage (Unimed, Switzerland) once a day for 5 days/week, consecutively for 3 months.), which contains abundant LB-like inclusions. Furthermore, brain slices from NFT abundant Tau P301S mice and Aβ-enriched 5 x FAD mice were also used separately.
The brain slices were fixed and incubated for 12 h at 4 °C with primary antibodies followed by incubation with Alexa Fluor 568-, Alexa Fluor 488-, or Alexa Fluor 647-conjugated secondary antibodies (Invitrogen) for 3 h at room temperature. Then stained with ThS (Sigma, Catalog No.: T1892) or candidate compounds at room temperature, 4',6-diamidino-2-phenylindole (DAPI, 1 µg/ml) (Sigma-Aldrich) was used for the nuclear staining. The slides were imaged with Olympus FluoView FV1000 confocal laser scanning microscope using Olympus FluoView software to acquire data.

[2] = molecular target: T2, p-α-Syn S129 (Homo sapiens, UniProt P37840); experiment: Ex vivo staining of human DLB patient brain sections; type: binding; conditions: DLB patient brain slides; Fig. 3
T2 construct: from tissue; host or cells: human DLB patient brain sections
Description: The ex vivo screening was extended into human DLB, and AD patient samples. Neurodegenerative diseases of DLB belong to synucleino-pathies with well-defined Lewy bodies. Therefore, the positive compounds should show robust signals with LBs and LNs.
For immunohistochemical staining, deparaffinized and antigen-retrieved 20 µm-thick human brain sections were treated with 0.3% H2O2 at room temperature for 10 min. Subsequently, the sections were washed in PBS with 0.3% Triton X-100 3 times and then blocked with 1% BSA for 30 min, followed by overnight incubation with anti-Aβ/AT8/α-Syn pS129 antibody at 4 °C. The signal was developed using a Histostain-SP kit (Invitrogen, Catalog No.: 95-9943). After washing, the sections were covered with a glass cover using mounting solution.

[3] = In vivo PK profiling, plasma and brain exposure; design: species or system male CD-1 (ICR) mice; conditions: 5 mg/kg via tail vein injection; for Kp at 1 min: at 1 minute, read-out: brain/plasma ratio; for half-life: plasma
Description: To test whether these compounds are brain permeable in vivo, in vivo PK profiling was conducted to determain brain exposure.
An in vivo PK study was performed in male CD-1 (ICR) mice. Weighed a known amount of test compound and dissolved in vehicle (5% NMP + 15% Solutol + 80% PBS) to make a formulation (1 mg/mL). Then administered 5 mg/kg compound via tail vein injection into mice. The experiment included five groups (sampling time points), each group consisting of three male CD-1 (ICR) mice (body weight range: 29.1-30.6 g). At designated time points (0, 1, 5, 15, and 30 minutes post-injection), serial venous blood samples (approximately 30 µL each) and brain tissue samples were harvested from each animal. Blood samples were collected into Vacutainer IM tubes containing EDTA-K2 anticoagulant, inverted several times, and immediately placed on wet ice pending plasma centrifugation. For brain tissue samples, PBS (100 mM, pH 7.4) at […] the weight of the tissue (1:4, w/v) was added for homogenization. The concentrations of the test compound in plasma and brain tissue homogenates were measured by the LC/MS/MS analysis, with the specific operations as follows: Aliquots of 10 µL plasma sample or 50 µL brain homogenate sample was transferred to a 96-well plate, mixed with 200 µL protein precipitation solvent (methanol/acetonitrile, 1:1 v/v, containing 5 ng/mL Terfenadine). After protein precipitation, the supernatant was collected and diluted 3-fold with methanol/water (1:1, v/v, containing 0.1% FA). 1 µL of plasma samples or 3 µL of brain tissue homogenate samples was taken for LC/MS/MS analysis.

[4] = molecular target: T3, α-Syn-p129 or α-Syn aggregates (Homo sapiens, UniProt P37840, A53T); experiment: In vivo validation: tail vein injection, then staining of brain sections; design: species or system rotenone-treated α-Syn A53T mice; conditions: 2 mg/kg tail vein injection; 0.5 hours after administration
T3 construct: tissue The Jackson Laboratory 017682; host or cells: brain sections of rotenone-treated transgenic mice
Description: (§1) In vivo validation of the compounds was performed using 8-month-old wild-type mice (Jiangsu Aniphe Biolaboratory Inc), 12-month-old 5xFAD mice (The Jackson Laboratory; Catalog No.: 034840), 6-month-old Tau P301S mice (The Jackson Laboratory; Catalog No.: 008169), and rotenone-treated α-Syn A53T mice (The Jackson Laboratory; Catalog No.: 017682). All mice were stratified by sex and randomly divided into groups, and the compounds were administered via tail vein injection at a dose of 2 mg/kg. Tissues were harvested and mouse brain sections were prepared 0.5 hours after administration, followed by staining with anti-Aβ (Biolegend; Catalog No.: SIG-39300) or AT8 (Thermo Fisher; Catalog No.: MN1020) together with the compounds, respectively.

[5] = molecular target: T4, Aβ (Homo sapiens, UniProt P05067); experiment: as above; design: species or system 5xFAD mice; conditions: 2 mg/kg tail vein injection; 0.5 hours after administration
T4 construct: tissue The Jackson Laboratory 034840; host or cells: brain of 5xFAD mice, compound injected in vivo, sections made afterwards
Description: as §1

[6] = male, CD-1 (ICR), mouse, brain/plasma, intravenous
[7] = male, CD-1 (ICR), mouse, brain/plasma, intravenous, read-out: brain/plasma ratio, maximum
[8] = male, CD-1 (ICR), mouse, intravenous

T4 sequence (P05067 672-713 limits assumed): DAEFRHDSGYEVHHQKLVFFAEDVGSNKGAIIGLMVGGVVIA

Compound	capture of a-Syn aggregates [1]	costaining with p-α-Syn S129 [2]	plasma half-life extension compared to F0502B [3]	Kp at 1 min [3, 6]	Kp at 15 min [3, 7]	half-life [3, 8]	co-localization with α-Syn-p129 or α-Syn aggregates [4]	specific binding to Aβ [5]	Kp at 30 min ([3]; male, CD-1 (ICR), mouse, brain/plasma, intravenous, at 30 minutes, read-out: brain/plasma ratio, maximum)
Cc1cc2nc(/C=C/c3ccc(O)c(N)c3)sc2cc1N(C)CCOCCF [Compound C, (E)-2-amino-4-(2-(6-((2-(2-fluoroethoxy)ethyl)(methyl)amino)-5-methylbenzo[d]thiazol-2-yl)vinyl)phenol]	sensitively captured a-Syn aggregates	costained	10 fold	0.24	1.29	68.4 min	co-localized	no specific binding	–
COc1c(/C=C/c2nc3cc(C)c(N(C)CCOCCF)cc3s2)ccc(O)c1Br [Compound E, (E)-2-bromo-4-(2-(6-((2-(2-fluoroethoxy)ethyl)(methyl)amino)-5-methylbenzo[d]thiazol-2-yl)vinyl)-3-methoxyphenol]	sensitively captured a-Syn aggregates	costained	–	0.12	3.37	–	co-localized	no specific binding	–
CCN(CCOCCF)c1cc2sc(/C=C/c3ccc(O)c(Br)c3)nc2cc1C [Compound R, (E)-2-bromo-4-(2-(6-(ethyl(2-(2-fluoroethoxy)ethyl)amino)-5-methylbenzo[d]thiazol-2-yl)vinyl)phenol]	sensitively captured a-Syn aggregates	costained	4.7 fold	0.05	–	32.4 min	co-localized	no specific binding	2.55
